In one experiment the target is T1, human δ receptor (Homo sapiens, UniProt P41143).
T1 construct: expressed in transfected cells
The experiment is described as follows: GTP[γ]35S binding functional assay, HEK-293S membranes. The experiment is classed as biochemical. On the procedure:
Human 293S cells expressing cloned human κ, δ and μ receptors and neomycin resistance are grown in suspension at 37° C. and 5% CO2 in shaker flasks containing calcium-free DMEM10% FBS, 5% BCS, 0.1% Pluronic F-68, and 600 μg/ml geneticin.
Cells are pelleted and resuspended in lysis buffer (50 mM Tris, pH 7.0, 2.5 mM EDTA, with PMSF added just prior to use to 0.1 mM from a 0.1 M stock in ethanol), incubated on ice for 15 min, then homogenized with a polytron for 30 sec. The suspension is spun at 1000 g (max) for 10 min at 4° C. The supernatant is saved on ice and the pellets resuspended and spun as before. The supernatants from both spins are combined and spun at 46,000 g (max) for 30 min. The pellets are resuspended in cold Tris buffer (50 mM Tris/Cl, pH 7.0) and spun again. The final pellets are resuspended in membrane buffer (50 mM Tris, 0.32 M sucrose, pH 7.0). Aliquots (1 ml) in polypropylene tubes are frozen in dry ice/ethanol and stored at −70° C. until use. The protein concentrations are determined by a modified Lowry assay with sodium dodecyl sulfate.
The agonist activity of the compounds is measured by determining the degree to which the compounds receptor complex activates the binding of GTP to G-proteins to which the receptors are coupled. In the GTP binding assay, GTP[γ]^35S is combined with test compounds and membranes from HEK-293S cells expressing the cloned human opioid receptors or from homogenised rat or mouse brain. Agonists stimulate GTP[γ]^35S binding in these membranes. The EC50 and Emax values of compounds are determined from dose-response curves. Right shifts of the dose response curve by the delta antagonist naltrindole are performed to verify that agonist activity is mediated through delta receptors. For human δ receptor functional assays, EC50 (low) is measured when the human δ receptors used in the assay were expressed at lower levels in comparison with those used in determining EC50 (high). The Emax values were determined in relation to the standard δ agonist SNC80, i.e., higher than 100% is a compound that have better efficacy than SNC80.
Rat brain membranes are thawed at 37° C., passed 3 times through a 25-gauge blunt-end needle and diluted in Mhe GTPγS binding (50 mM Hepes, 20 mM NaOH, 100 mM NaCl, 1 mM EDTA, 5 mM MgCl2, pH 7.4, Add fresh: 1 mM DTT, 0.1% BSA). 120 μM GDP final is added membranes dilutions. The EC50 and Emax of compounds are evaluated from 10-point dose-response curves done in 300 μl with the appropriate amount of membrane protein (20 μg/well) and 100000-130000 dpm of GTPγ^5S per well (0.11-0.14 nM). The basal and maximal stimulated binding are determined in absence and presence of 3 μM SNC-80. The assay performed on HEK 293s cells stably expressing cloned Delta receptors is done in a slightly different buffer (50 mM Hepes, 20 mM NaOH, 200 mM NaCl, 1 mM EDTA, 5 mM MgCl2, pH 7.4, Add fresh: 0.5% BSA, no DTT) and with a 3 μM final conc. of GDP.
Background: Binding of GTPγS marks nucleotide exchange on a G protein.

Another experiment deals with T2, cloned human μ receptor (Homo sapiens, UniProt P35372).
T2 construct: expressed in transfected cells; host or cells: human HEK-293S cells, neomycin resistance
Put plainly: μ receptor binding assay, displacement of 125I-FK33824. A general note: Displacement assays read how much labelled ligand stays bound in the presence of the test substance.

Another experiment addresses T3, cloned human δ receptor (Homo sapiens, UniProt P41143).
T3 construct: expressed in transfected cells
Put plainly: δ receptor binding assay, displacement of 125I-Deltorphin II.

Another experiment has as its target cloned human κ receptor (Homo sapiens, UniProt P41145). The experiment is described as follows: κ receptor binding assay, displacement of 125I-DPDYN. As to conditions: Table 1.
[1] abbreviates: Table 2, lower receptor expression, relative to SNC80, range over several compounds, read-out: Human δ % Emax (low).

pEC50, pIC50: −log10 of the molar value. Read-outs that look alike come from different tables or passages of the source.

T1 sequence (P41143 whole entry): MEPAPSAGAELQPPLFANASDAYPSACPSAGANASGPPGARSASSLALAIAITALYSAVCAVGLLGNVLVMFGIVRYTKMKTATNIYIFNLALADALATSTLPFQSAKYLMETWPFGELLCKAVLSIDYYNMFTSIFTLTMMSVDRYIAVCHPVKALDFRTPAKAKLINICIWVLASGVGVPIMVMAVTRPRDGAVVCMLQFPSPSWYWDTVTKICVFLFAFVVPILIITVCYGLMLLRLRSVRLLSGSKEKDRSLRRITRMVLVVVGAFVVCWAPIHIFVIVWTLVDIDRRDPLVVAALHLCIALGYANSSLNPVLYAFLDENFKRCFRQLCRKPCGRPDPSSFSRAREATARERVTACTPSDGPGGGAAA
T3 sequence (P41143 whole entry): as above
T2 sequence (P35372 whole entry): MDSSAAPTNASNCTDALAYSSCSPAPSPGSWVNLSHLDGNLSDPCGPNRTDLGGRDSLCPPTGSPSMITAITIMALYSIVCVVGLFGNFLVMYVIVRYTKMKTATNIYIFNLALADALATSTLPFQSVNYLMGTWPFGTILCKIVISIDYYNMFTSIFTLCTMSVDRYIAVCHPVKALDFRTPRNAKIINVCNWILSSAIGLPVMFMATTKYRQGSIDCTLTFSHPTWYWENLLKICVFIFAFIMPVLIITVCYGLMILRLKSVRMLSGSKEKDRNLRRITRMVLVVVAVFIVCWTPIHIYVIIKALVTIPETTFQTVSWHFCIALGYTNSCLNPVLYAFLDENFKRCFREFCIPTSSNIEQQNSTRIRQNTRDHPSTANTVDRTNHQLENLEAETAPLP
Chain of cloned human κ receptor (P41145 whole entry): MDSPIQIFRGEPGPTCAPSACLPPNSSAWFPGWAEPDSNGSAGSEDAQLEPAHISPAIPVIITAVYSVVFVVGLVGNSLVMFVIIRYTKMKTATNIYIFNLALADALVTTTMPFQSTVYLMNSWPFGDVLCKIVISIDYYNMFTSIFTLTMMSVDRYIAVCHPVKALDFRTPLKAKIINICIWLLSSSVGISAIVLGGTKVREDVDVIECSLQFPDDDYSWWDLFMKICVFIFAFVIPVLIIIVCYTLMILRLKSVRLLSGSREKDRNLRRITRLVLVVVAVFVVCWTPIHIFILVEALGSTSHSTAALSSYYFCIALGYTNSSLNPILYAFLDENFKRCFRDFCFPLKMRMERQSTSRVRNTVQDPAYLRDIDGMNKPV

`CCN(CC)C(=O)c1ccc(C(=C2CCN(Cc3cccs3)CC2)c2cccc(NC(=O)OC)c2)cc1` [Compound 1, [3-[[4-[(diethylamino)carbonyl]phenyl][1-(2-thienylmethyl)-4-piperidinylidene]methyl]phenyl]-carbamic acid, methyl ester]: the negative logarithm of the EC50 (pEC50) at human δ receptor is 8.22 to 8.74. Besides, the Emax at human δ receptor (setting [1]) was 93.7 to 128%. Besides, the pIC50 is 6.30 to 7.20 at cloned human μ receptor and 9.46 to 9.52 on cloned human δ receptor.

In turn, `CCN(CC)C(=O)c1ccc(C(=C2CCN(Cc3ccco3)CC2)c2cccc(NC(=O)OC)c2)cc1` [Compound 2, [3-[[4-[(diethylamino)carbonyl]phenyl][1-(2-furanylmethyl)-4-piperidinylidene]methyl]phenyl]-carbamic acid, methyl ester] showed a pEC50 on human δ receptor of 8.22 to 8.74. Besides, the Emax at human δ receptor (setting [1]) was 93.7 to 128%. Moreover, the pIC50 was 6.30 to 7.20 on cloned human μ receptor and 9.46 to 9.52 at cloned human δ receptor.

Turning to `CCN(CC)C(=O)c1ccc(C(=C2CCN(Cc3cncs3)CC2)c2cccc(NC(=O)OC)c2)cc1` [Compound 5, methyl 3-{{4-[(diethylamino)carbonyl]phenyl}[1-(1,3-thiazol-5-ylmethyl)piperidin-4-ylidene]methyl}phenylcarbamate], the negative logarithm of the EC50 (pEC50) on human δ receptor was 8.22 to 8.74. The Emax on human δ receptor (setting [1]) is 93.7 to 128%. Further, the results for the negative-log IC50 (pIC50) on cloned human μ receptor and at cloned human δ receptor were 6.30 to 7.20 and 9.46 to 9.52, respectively.

On to `CCN(CC)C(=O)c1ccc(C(=C2CCN(Cc3ccccc3)CC2)c2cccc(NC(=O)OC)c2)cc1` [Compound 3, [3-[[4-[(diethylamino)carbonyl]phenyl][1-(phenylmethyl)-4-piperidinylidene]methyl]phenyl]-carbamic acid, methyl ester], for which the negative-log EC50 (pEC50) at human δ receptor is 9.21. The maximal response (Emax) on human δ receptor (Table 1, higher receptor expression, relative to standard δ agonist SNC80, read-out: Human δ % EMax (high)) amounted to 91.7%. Moreover, the pIC50 on cloned human μ receptor was 7.54; on cloned human κ receptor it was 6.73; on cloned human δ receptor it was 9.32.

For orientation: pEC50 means the negative decadic logarithm of the EC50, by convention in mol/L. The low end stands for a high EC50, the high end for a low EC50. Broadly, the Emax is the size of the effect at its maximum, as opposed to the concentration needed. One may read the pIC50 as the negative decadic logarithm of the IC50, by convention in mol/L. A higher pIC50 goes with a small IC50.

These data come from patent publication US20060116399A1, “Diarylmethylidene piperidine derivatives, preparations thereof and uses thereof” (AstraZeneca AB, priority 2003, published 2006).
